Here are results for six compounds from patent publication US6368552B1, “Water treating agent and water treating method” (Kurita Water Industries Ltd., priority 1999, dated 2002).

Data set [1] can be described thus: Autoclave test of transference of the chemical from liquid water phase to steam phase at 200° C. (gas chromatography). Conditions: autoclave 200° C.; for Conc. of chemical in water / Conc. of chemical in steam: 200 mg/liter aqueous solution, pH 11.5 with sodium hydroxide; for Conc. of chemical in water: liquid phase sample; for Conc. of chemical in steam: steam phase sample. It counts as physicochemical. Here is the method:
Each 50 ml of samples were taken from the steam phase and from the liquid phase directly after the temperature had reached at 200° C., which were analyzed for the concentration of the chemical on a gas chromatography. The ratio of the concentration of chemical in the steam phase versus the concentration of chemical in the liquid phase was calculated.

A short description of data set [2]: Removal of dissolved oxygen by potassium erysorbate at 60° C., 10 minutes. Conditions: 100 mg potassium erysorbate per liter, pH of test soln. as in row (6.5-10.5). Here is the method:
In a constant temperature bath held at 60° C., one liter of deionized water of a pH of 6.5 was stirred for one hour so as to saturate it with atmospheric oxygen and the oxygen concentration was measured by a dissolved oxygen meter (MOCA 3600 of the firm Orbisphere Laboratories). 100 mg of potassium erysorbate were added to the water and the mixture was agitated sufficiently, before the solution was poured into a 200 ml incubation bottle to fill it completely therewith, whereupon a closure stopper was fitted into the bottle so as to exclude any rest of gas space therein and the bottle was returned to the constant temperature bath of 60° C. to subject the solution to reaction for 10 minutes. After 10 minutes, the bottle was taken out of the bath and the dissolved oxygen concentration therein was detected by the dissolved oxygen meter. The rate of removal of dissolved oxygen is calculated from the proportion of the dissolved oxygen concentration after the addition of potassium erysorbate versus the dissolved oxygen concentration before the addition of potassium erysorbate (Comparative Example 15).
Test solutions were prepared from each one liter of deionized water by adjusting the pH thereof at 7.5, 9.0 and 10.5, respectively, by adding sodium hydroxide thereto as alkali reagent. […]

Turning to `CCCCCC1CCC(=O)O1` (stereo not drawn) [Example 1, γ-nonalactone], in data set [1], the “Conc. of chemical in water” value turned out to be 188 µg/mL and the “Conc. of chemical in steam” value amounted to 207 µg/mL. Moreover, the “Conc. ratio Cs/Cw (concentration in the steam phase/concentration in liquid water phase)” value in data set [1] (pH 11.5) is recorded as 1.10.
Take `O=C1O[C@H]([C@H](O)CO)C([O-])=C1O.[K+]` [compound 15, potassium erysorbate]: the “Rate of O2 remov.” value in data set [2] is recorded as 30.1%.
For the compound `O=C1O[C@H](CO)[C@@H](O)[C@H](O)[C@H]1O` [compound 1, glucono-δ-lactone, reference compound], in data set [1], the “Conc. of chemical in water” value is less than 1 µg/mL, the “Conc. of chemical in steam” value is less than 1 µg/mL and the “Transference from the liquid water phase to the steam phase” value is given as “almost no transference”. In data set [1] (pH 11.5), the “Conc. ratio Cs/Cw (concentration in the steam phase/concentration in liquid water phase)” value is on record as less than 0.01. Further, the “Converted into gluconic acid (with some decomposition into other compounds)” value in data set [1] (liquid water phase, pH 11.5) is reported as “*2) Converted into 173 mg/l of gluconic acid with some decomposition into other compounds”.
In the case of `CCCCCCC1CCC(=O)O1` (stereo not drawn) [Example 2, γ-decalactone], in data set [1], the “Conc. of chemical in water” value was found to be 187 µg/mL and the “Conc. of chemical in steam” value came to 120 µg/mL. In addition, the “Conc. ratio Cs/Cw (concentration in the steam phase/concentration in liquid water phase)” value in data set [1] (pH 11.5) amounted to 0.64.
For `C=CCc1ccc(O)c(OC)c1` [Example 4, Eugenol], in that order: 184 µg/mL, 418 µg/mL and 2.27.
Taken in the same sequence, the figures for `CC=Cc1ccc(O)c(OC)c1` [Example 5, Isoeugenol] were 186 µg/mL, 453 µg/mL and 2.44.
